According to patent EP4361137A1, “PRUNE1 INHIBITORS AND THERAPEUTIC USE THEREOF” (CEINGE Biotecnologie Avanzate Franco Salvatore s.c. a r.l., priority 2022, dated 2024):

Tests used:
J774A.1 macrophages = experiment: M2-polarization of macrophages grown in conditioned media (qPCR); format: cell-based, murine; details: macrophages 48 h in conditioned media of MMTV-Prune1-Wnt1 cells treated with 10 µM
Experimental: The effects of MMTV-Prune-1/Wnt1 cells upon treatment with LEO-AA7.5(S)T were analyzed for M2-polarization of J774A. 1 murine macrophages. Briefly 1 ×10^6 MMTV-Prune-1/Wnt1 cells were resuspended in 10 mL complete DMEM medium, plated into 10-cm-diameter plates, treated with 10 µM LEO-AA7.5(S)T or water as vehicle control, and grown at 37 °C for 24 h. Then the conditioned media were collected. One day before culture in the conditioned media, J774A.1 macrophages were plated into 10-cm-diameter plates. At the time of the culturing in conditioned media, macrophages were at 50% confluence, and after 6 h of starvation in serum-free medium, the macrophages were grown in conditioned media for 48 h. Each experimental point was carried out in triplicate. After the culturing in the conditioned media, the macrophages were washed with PBS, collected, and used for RNA extraction.
RNA samples were extracted using TRIzol RNA Isolation Reagent (15596026, Invitrogen), according to the manufacturer instructions. […] The targets were detected with the SYBR green approach, using BrightGreen BlasTaq 2× PCR MasterMix (G895; ABM). Human ACTB was used as the housekeeping gene to normalize the quantification cycle (Cq) values of the other genes. […] Relative expression of the target genes was determined using the 2^-ΔΔCq method, as the fold increase compared with the controls. […]

c-Prune1 (354-453) = molecular target: T1, c-Prune1 (354-453) (Homo sapiens, UniProt Q86TP1); experiment: NMR and microscale thermophoresis interaction study; format: binding; details: KD not given
T1 construct: 20 µM of c-Prune1 (354-453) protein was labelled with 60 µM of NT-647-NHS reactive dye; made in house
T1 sequence (Q86TP1 354-453): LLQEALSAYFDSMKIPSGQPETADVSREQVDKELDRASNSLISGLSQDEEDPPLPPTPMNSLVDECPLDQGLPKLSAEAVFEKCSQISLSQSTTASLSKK
Experimental: For interaction studies, samples (total volume, 600 µL) were prepared in 5-mm NMR tubes, using 1mM of AA7.5 and 10µM of C-prune1 (AA7.5/C-prune1 molar ratio of 100:1) in H2O/^2H2O mixture at pH 6.8. STD spectra were acquired with 512 scans with onresonance irradiation at -0.5 ppm for selective saturation of protein resonances and off-resonance irradiation at 30 ppm for reference spectra. A train of 40 Gaussian-shaped pulses of 50 milliseconds with 1-millisecond delay between pulses were used, for a total saturation time of 2 seconds. […]
1H and STD spectra of AA7.5 alone were acquired as reference. […] Relative STD values were calculated by dividing STD signal intensities by the intensities of the corresponding signals in a 1D 1H NMR reference spectrum of the same sample recorded with 512 scans and similarly processed. […] To determine the per residue chemical shift perturbation upon binding and account for differences in spectral widths between ^15N and ^1H resonances, weighted average chemical shift differences, ΔδHN , were calculated for the amide ^15N and ^1H resonances, using equation: ΔδHN = ([((ΔHN))^2+((0.17×Δ^15N))^2])^((1)/(2)) [formula] where ΔH and ΔN are the differences between free and bound chemical shifts. […]

## COc1ccc(CNc2ncnc(N3CCC[C@H](CO)C3)n2)cc1.Cl [LEO-AA7.5(S)T, (S)-(1-(4-((4-methoxybenzyl)amino)-1,3,5-triazin-2-yl)piperidin-3-yl)methanol HCl salt]
J774A.1 macrophages
  levels of M2-polarized marker genes in macrophages: decreased levels
c-Prune1 (354-453)
  binding to Prune1 protein at its Carboxyl-terminus domain: binds Prune1 protein
